Assay results published in patent US9464113B2, “Anti-heparan sulfate peptides that block herpes simplex virus infection in vivo” (The Board of Trustees of the University of Illinois, priority 2010, dated 2016).
No end group written: not given here.

Experiments:
HSV-1(K26GFP) = HSV-1(K26GFP) binding to human CF (microscopy, fluorescence reader, flow cytometry); format: cell-based, herpes simplex virus type-1; conditions: for virus binding by flow cytometry: 60 min pre-treatment, 4° C. (FIG. 6C)
Experimental: Flow cytometry was performed to detect the effect of G2 peptide on GFP-HSV-1 binding to human CF. Monolayers of approximately 5×10^6 CF were pre-treated with G2 peptide for 60 min followed by incubation with GFP-expressing HSV-1 (K26GFP) at 4° C. A control peptide treated and untreated cells were similarly incubated with HSV-1 GFP virions. Uninfected CF were used as background negative control. GFP expression from the viral capsid on cell surface was examined by a flowcytometer (MoFlo).
Cultured CF were pre-incubated with 0.5 mM G2 peptide or control-peptide (cp) and then infected with a GFP-tagged HSV-1(K26GFP) virus. Cells were fixed at 60 min post-infection and stained for F-actin and the nucleus (DAPI). GFP-expressing HSV-1(K26GFP) binding to CF in presence and absence of G2 peptides was examined by fluorescence microscopy (FIG. 6A). CF were grown in collagen coated chamber slides and incubated at room temperature for 60 min with G2 (+) or control Cp (G2 (−)) peptide. This was followed by the incubation of the cells in cold with GFP-expressing HSV-1(K26GFP) for 30 min and washing of unbound virioins with PBS. Cells were fixed, stained with phalloidin for F-actin and DAPI for nuclei and examined by a fluorescence microscope (Leica, SP2). The presence of the virus was shown by detecting GFP.
To examine this effect on a population of 10^5 cells, GFP intensity as an indicator of virus binding, was measured after incubation with the virus in cold and rigorous washing of the cells afterwards (FIG. 6B). Relative virus binding to CF was estimated by fluorescence measurements. Cultured CF were pre-incubated with G2 and control peptide (Cp) for 60-min before ice-cold incubation with GFP-expressing HSV-1 virus for 30 min. Cells were washed 3 times and viruses remaining on cell surfaces were assayed for GFP fluorescent intensity using a fluorescence reader (Tecan).
GFP-expressing HSV-1(K26GFP) intensity as a surrogate for virus binding was quantified in presence G2 or control peptide (abbreviated as C) by flow cytometry (FIG. 6C). The cell/virus incubation was performed as described above. G2 peptides block HSV-1 replication into cultured human corneal fibroblasts (CF) (FIG. 6D). Cultured CF were pre-incubated with G2 or mock-treated (Cp) before infection with HSV-1(K26GFP) virus for 6 h. Viral replications in CF were quantified 0-36 h post-infection by measuring GFP fluorescent intensity using a fluorescence reader (Tecan). The data shown are the means of triplicate measures and are representative of three independent experiments. Asterisks indicate significant difference from other treatments (P<0.01, t test), error bars represent standard deviation (SD).
Primary cultures of human CF pretreated with G2 peptide or control peptide (C) were analyzed for HSV-1(K26GFP) binding. […]

[1] = test system: β-galactosidase expressing CMV; assay: CMV entry assay in RPE cells; format: cell-based, cytomegalovirus; conditions: 0.5 mM, 60 min pre-treatment, 8 h, ONPG and X-gal
Experimental: Natural target RPE cells were incubated with G1 and G2 peptides for 60 min at room temperature before the cells were infected with β-galactosidase expressing CMV (ATCC) for 8 h. β-galactosidase assays were performed using either a soluble substrate o-nitrophenyl-β-D-galactopyranoside (ONPG at 3.0 mg/ml; ImmunoPure, Pierce) or X-gal (Sigma).
In order to detect each peptide's effect on viral entry, Lac Z-expressing reporter CMV and GFP-expressing HHV-8 viruses (Viera et al., J. Virol. 72:5182-5188 (2000)) and their natural target cells were employed for entry measurements. […] A monolayer of cultured RPE cells grown in a 96 well plate were pre-treated with G1, G2, or control peptide (Cp) at 0.5 mM concentration (FIG. 5A). A mock-treated population of RPE cells served as positive control (abbreviated as C). After 60 min of incubation at room temperature, the cells were infected with β-galactosidase expressing CMV reporter virus. After 8 h, viral entry was measured as described for FIG. 1.
The effect of CMV entry blocking activity of G1, G2 or Cp peptide for individual RPE cells was determined by X-gal staining, which yields an insoluble blue product upon hydrolysis by β-galactosidase (FIG. 5B). Individual cells were examined using a Zeiss Axiovert 100 microscope at 20× magnification. Infected cells turn blue. […]

Row | Sequence | virus attachment (fluorescence microscopy) (HSV-1(K26GFP); 0.5 mM, 60 min, virus in cold 30 min (FIG. 6A)) | virus binding by flow cytometry (HSV-1(K26GFP)) | relative virus binding (GFP fluorescent intensity) (HSV-1(K26GFP); fluorescence reader (FIG. 6B)) | blocking of CMV entry [1]
1 | MPRRRRIRRRQK [G2, MPRRRRIRRRQK] | resisted virus attachment | virus failed to bind | binding was significantly higher in Cp-treated compared to G2 peptide treated cells | effective in blocking CMV entry
2 | RVCGSIGKEVLG [Cp, reference compound] |  | low level inhibitory activity |  | 
3 | LRSRTKIIRIRH [G1, LRSRTKIIRIRH] |  |  |  | no effect on viral entry
